ChEMBL document CHEMBL4152309, “N-phenylsulfonyl-3,5-bis(arylidene)-4-piperidone derivatives as activation NF-κB inhibitors in hepatic carcinoma cell lines” (Eur J Med Chem, 2018)
The source made the active and inactive calls. The rule behind the calls is not given here.

How the values were obtained:
[1] = test system: HepG2; assay: Cytotoxicity against human HepG2 cells assessed as reduction in cell viability after 24 hrs by MTT assay; assay type: functional, cell-based; details: for IC50: HepG2, 24 h
[2] = test system: QGY-7703; assay: Cytotoxicity against human QGY7703 cells assessed as reduction in cell viability after 24 hrs by MTT assay; assay type: functional, cell-based; details: for IC50: QGY-7703, 24 h
[3] = test system: SMMC-7721; assay: Cytotoxicity against human SMMC7721 cells assessed as reduction in cell viability after 24 hrs by MTT assay; assay type: functional, cell-based; details: for IC50: SMMC-7721, 24 h
[4] = Cytotoxicity against mouse RAW264.7 cells assessed as cell viability at 10 uM after 24 hrs by MTT assay relative to control; assay type: cell-based; details: read-out: Activity
[5] = Cytotoxicity against human HHL5 cells assessed as reduction in cell viability after 24 hrs by MTT assay; assay type: cell-based; details: HHL-5, 24 h
[6] = test system: L02; assay: Cytotoxicity against human LO2 cells assessed as reduction in cell viability after 24 hrs by MTT assay; assay type: cell-based; details: L02, 24 h
[7] = test system: RAW264.7; assay: Anti-inflammatory activity in mouse RAW264.7 cells assessed as inhibition of LPS-induced TNFalpha secretion at 10 uM pretreated for 2 hrs followed by LPS stimulation and measured after 22 hrs by ELISA; assay type: functional, cell-based
[8] = test system: RAW264.7; assay: Anti-inflammatory activity in mouse RAW264.7 cells assessed as inhibition of LPS-induced TNFalpha secretion at 30 uM pretreated for 2 hrs followed by LPS stimulation and measured after 22 hrs by ELISA; assay type: functional, cell-based
[9] = test system: RAW264.7; assay: Anti-inflammatory activity in mouse RAW264.7 cells assessed as inhibition of LPS-induced IL-6 secretion at 30 uM pretreated for 2 hrs followed by LPS stimulation and measured after 22 hrs by ELISA; assay type: functional, cell-based
[10] = test system: RAW264.7; assay: Anti-inflammatory activity in mouse RAW264.7 cells assessed as inhibition of LPS-induced IL-6 secretion at 10 uM pretreated for 2 hrs followed by LPS stimulation and measured after 22 hrs by ELISA; assay type: functional, cell-based

| Structure (SMILES) | IC50 [1] [µM] | IC50 [2] [µM] | IC50 [3] [µM] | viability at 24 h, 10 µM [4] [%] | IC50 [5] [µM] | IC50 [6] [µM] | inhibition [7] | inhibition [8] | inhibition [9] | inhibition [10] | Activity [1] | Activity [2] | Activity [3] |
| --- | --- | --- | --- | --- | --- | --- | --- | --- | --- | --- | --- | --- | --- |
| COc1cc(/C=C2\CN(S(=O)(=O)c3ccc(F)cc3)C/C(=C\c3ccccc3F)C2=O)cc(OC)c1 | 9.3 | 14 | 6.89 | > 80 | 16 | 18.4 |  |  |  |  |  |  |  |
| COc1cc(/C=C2\CN(S(=O)(=O)c3ccc(NC(C)=O)cc3)C/C(=C\c3cccc([N+](=O)[O-])c3)C2=O)cc(OC)c1OC | 3.34 | 2.55 | 1.95 | > 80 | 14.2 | 15.6 |  |  |  |  |  |  |  |
| N#Cc1ccc(/C=C2\CN(S(=O)(=O)c3ccc(F)cc3)C/C(=C\c3ccccc3F)C2=O)cc1 | 8.18 | 20.1 | 10.2 | > 80 | 19 | 21.9 | Active |  |  |  |  |  |  |
| COc1cc(/C=C2\CN(S(=O)(=O)c3ccc(F)cc3)C/C(=C\c3cccc([N+](=O)[O-])c3)C2=O)cc(OC)c1OC | 3.25 | 3.27 | 4.9 | > 80 | 11.1 | 18.8 |  |  |  |  |  |  |  |
| CC(=O)Nc1ccc(S(=O)(=O)N2C/C(=C\c3ccc(C#N)cc3)C(=O)/C(=C/c3ccc(C#N)cc3)C2)cc1 | 4.88 | 3.32 | 7.12 | > 80 | 11.9 | 14 |  |  |  |  |  |  |  |
| COc1cc(/C=C2\CN(S(=O)(=O)c3ccc(F)cc3)C/C(=C\c3cc(OC)c(OC)c(OC)c3)C2=O)cc(OC)c1OC | 4.2 | 2.22 | 3.84 | > 80 | 11 | 12.1 |  |  |  |  |  |  |  |
| O=C1/C(=C/c2cccc([N+](=O)[O-])c2)CN(S(=O)(=O)c2ccc(F)cc2)C/C1=C\c1ccccc1F | 7.04 | 14.9 | 7.82 | > 80 | 17.8 | 17 |  |  |  |  |  |  |  |
| COc1cc(/C=C2\CN(S(=O)(=O)c3ccc(NC(C)=O)cc3)C/C(=C\c3cc(OC)c(OC)c(OC)c3)C2=O)cc(OC)c1 | 4.14 | 2.02 | 4.2 | > 80 | 13.5 | 15.9 |  |  |  |  |  |  |  |
| CC(=O)Nc1ccc(S(=O)(=O)N2C/C(=C\c3ccc(C#N)cc3)C(=O)/C(=C/c3ccccc3F)C2)cc1 | 4.96 | 2.05 | 3.15 | > 80 | 11.3 | 14.4 |  |  |  |  |  |  |  |
| N#Cc1ccc(/C=C2\CN(S(=O)(=O)c3ccc(F)cc3)C/C(=C\c3ccc(C#N)cc3)C2=O)cc1 | 11.5 | 11.3 | 20.1 | > 80 | 19.2 | 18.9 | Active |  |  |  |  |  |  |
| COc1cc(/C=C2\CN(S(=O)(=O)c3ccc(NC(C)=O)cc3)C/C(=C\c3ccccc3F)C2=O)cc(OC)c1 | 6.8 | 3.69 | 5.21 | > 80 | 15.3 | 15.4 |  |  |  |  |  |  |  |
| S=C(S)N1CCCC1 |  |  |  |  |  |  |  | Active | Active |  |  |  |  |
| CC(=O)Nc1ccc(S(=O)(=O)N2C/C(=C\c3cccc([N+](=O)[O-])c3)C(=O)/C(=C/c3ccccc3F)C2)cc1 | 8.8 | 7.85 | 10.2 | > 80 | 20 | 18.4 |  |  |  | Active |  |  |  |
| COc1cc(/C=C2\CN(S(=O)(=O)c3ccc(F)cc3)C/C(=C\c3cc(OC)cc(OC)c3)C2=O)cc(OC)c1 | 8.1 | 11.4 | 8.21 | > 80 | 14.4 | 19.8 |  |  |  |  |  |  |  |
| CC(=O)Nc1ccc(S(=O)(=O)N2C/C(=C\c3cccc([N+](=O)[O-])c3)C(=O)/C(=C/c3cccc([N+](=O)[O-])c3)C2)cc1 | 7.14 | 6.76 | 8.42 | > 80 | 17.8 | 15.8 |  |  |  |  |  |  |  |
| COc1cccc2c1C(=O)c1c(O)c3c(c(O)c1C2=O)C[C@@](O)(C(=O)CO)C[C@@H]3O[C@H]1C[C@H](N)[C@H](O)[C@H](C)O1 [DOXORUBICIN] | 1.01 | 1.44 | 1.47 |  | 9.27 | 7.87 |  |  |  |  | Dose-dependent effect | Dose-dependent effect | Dose-dependent effect |
| COc1cc(/C=C2\CN(S(=O)(=O)c3ccc(NC(C)=O)cc3)C/C(=C\c3cc(OC)c(OC)c(OC)c3)C2=O)cc(OC)c1OC | 3.89 | 1.9 | 3.47 | > 80 | 13.8 | 13.6 |  |  |  |  |  |  |  |
| COc1cc(/C=C2\CN(S(=O)(=O)c3ccc(NC(C)=O)cc3)C/C(=C\c3cc(OC)cc(OC)c3)C2=O)cc(OC)c1 | 7.54 | 11.3 | 6.84 | > 80 | 18.1 | 18.7 |  |  |  |  |  |  |  |
| O=C1/C(=C/c2ccccc2F)CN(S(=O)(=O)c2ccc(F)cc2)C/C1=C\c1ccccc1F | 7.22 | 8.5 | 8.37 | > 80 | 13.4 | 19.1 |  |  |  |  |  |  |  |
| O=C1/C(=C/c2cccc([N+](=O)[O-])c2)CN(S(=O)(=O)c2ccc(F)cc2)C/C1=C\c1cccc([N+](=O)[O-])c1 | 8.76 | 11.9 | 3.98 | > 80 | 11.2 | 15.5 |  |  |  |  |  |  |  |
| COc1cc(/C=C2\CN(S(=O)(=O)c3ccc(F)cc3)C/C(=C\c3cc(OC)c(OC)c(OC)c3)C2=O)cc(OC)c1 | 3.89 | 5.2 | 5.42 | > 80 | 11.3 | 12.3 | Active |  |  |  |  |  |  |
| COc1cc(/C=C2\CN(S(=O)(=O)c3ccc(F)cc3)C/C(=C\c3ccccc3F)C2=O)cc(OC)c1OC | 7.94 | 13.3 | 6.34 | > 80 | 15.9 | 17.6 |  |  |  | Active |  |  |  |
| COc1cc(/C=C/C(=O)CC(=O)/C=C/c2ccc(O)c(OC)c2)ccc1O [CURCUMIN] | 16 | 21.4 | 19.5 |  | 22.3 | 23.9 |  |  |  |  |  |  |  |
| COc1cc(/C=C2\CN(S(=O)(=O)c3ccc(NC(C)=O)cc3)C/C(=C\c3ccccc3F)C2=O)cc(OC)c1OC | 4.75 | 2.68 | 3.92 | > 80 | 12.2 | 14 |  |  |  |  |  |  |  |
| CC(=O)Nc1ccc(S(=O)(=O)N2C/C(=C\c3ccccc3F)C(=O)/C(=C/c3ccccc3F)C2)cc1 | 5.84 | 5.5 | 7.49 | > 80 | 13.3 | 11.6 |  |  |  |  |  |  |  |
| COc1cc(/C=C2\CN(S(=O)(=O)c3ccc(F)cc3)C/C(=C\c3ccc(C#N)cc3)C2=O)cc(OC)c1OC | 4.95 | 4.98 | 4.12 | > 80 | 12.9 | 12.9 |  |  |  |  |  |  |  |
